Data published in patent US11725006B2, “Hydrophilic berberine-type derivative and application thereof in preparing drug” (INSTITUTE OF MATERIA MEDICA, CHINESE ACADEMY OF MEDICAL …, priority 2018, dated 2023).
Several values for one entry are separate records, joined by “and”; a condition that tells them apart may be missing. Identical values can stand only once. Counter-ions that a name gives are not always drawn. Like-named read-outs stand apart in the source and are kept apart here. Marks after values point to notes of the source that are not given here.

Assays:
[1] = tested on: colorectal cancer model mice induced by AOM/DSS; experiment: Colorectal cancer model mice induced by AOM/DSS; type: in vivo, C57b1/6j mice; conditions: 250 mg/kg by gavage, two weeks on, one week off, 12 weeks
Method: C57b1/6j mice were randomly grouped according to the above experimental grouping scheme, five mice in the normal control group, and ten other groups.
After one week's normal pre-feeding, normal feeding was done for another two weeks. From the 3rd week on, 0.5% carboxymethylcellulose sodium water solution was administered by gavage in the amount of 10 ml/kg. Administration mode was such that the drug was administered once a day for 12 weeks until the end of the experiment.
After one week of normal pre-feeding, AOM was given by intraperitoneal injection at a dose of 10 mg/kg (Prepared by a concentration of 10 mg AOM in 10 ml of normal saline). Then the animals were fed normally for one week, which was recorded as the first week of the experiment. At the beginning of the second week, mice were allowed to drink the drinking aqueous solution containing 2% DSS freely for one week. […] From the 3rd week on, 0.5% carboxymethylcellulose sodium water solution was administrated by gavage at the amount of 10 ml/kg. The administration mode was such that the drug was administered once a day for 12 weeks until the end of the experiment. (3) Positive Drug Capecitabine Group
After one week of normal pre-feeding, AOM was given by intraperitoneal injection at a dose of 10 mg/kg (Prepared by a concentration of 10 mg AOM in 10 ml of normal saline). Then the animals were fed normally for one week, which was recorded as the first week of the experiment. At the beginning of the second week, mice were allowed to drink the drinking water solution containing 2% DSS freely for one week. […] The administration lasted for 12 weeks (including the weeks of drug withdrawal).
After one week of normal pre-feeding, AOM was given by intraperitoneal injection at a dose of 10 mg/kg (prepared by a concentration of 10 mg AOM in 10 ml of normal saline). Then the animals were fed normally for one week, which was recorded as the first week of the experiment. At the beginning of the second week, mice were allowed to drink the drinking water solution containing 2% DSS freely for one week. […] The administration mode was such that the drug was administered once a day, up to the end of the experiment. The administration lasted for 12 weeks.
The calculation method of calculated tumor burden value is as follows: Tumor burden=(Mean tumor diameter/numbers of mice)^2×(Tumor number/numbers of mice)

[2] = Alcohol-solubility examination in 95% ethanol under refluxing; type: physicochemical; conditions: per gram of compound, within 30 minutes
Method: The compounds of the invention were weighed and placed into different amount of 95% ethanol solvent under refluxing, respectively. The dissolution status within 30 minutes was observed. If there were no visible solute particle, it would be regarded as complete dissolution.

[3] = Hydrosolubility examination in pure water; type: physicochemical; conditions: per milliliter of purified water, 25° C.±2° C., visual, within 30 minutes
Method: The compounds of the invention were weighed and placed into a certain amount of pure water solvent under 25° C.±2° C., respectively. […] If there were no visible solute particle, it would be regarded as complete dissolution.

[4] = tested on: C57b1/6j mice model of ulcerative colitis induced by DSS; experiment: Acute ulcerative colitis model induced by dextran sodium sulfate (DSS); type: in vivo; conditions: for Percentage of colon contracture: compared to colon length in normal control group; for body weight loss percentage: compared with body weight at the beginning of the experiment; for Body weight change rate: end versus start
Method: (1) Animals: C57b1/6j mice, male (20-22 g); seven mice in each group.
(3) Dosage and times of administration: The positive drug was 500 mg/kg, both dihydrocoptisine and the compounds of the invention were 100 mg/kg, once a day for eight days.
(4) Experimental methods: The method of this experiment was a literature method: see Zhi-Hui Zhang, Hai-Jing Zhang, An-Jun Deng, Bo Wang, Zhi-Hong Li,
Yang Liu, Lian-Qiu Wu, Wen-Jie Wang, and Hai-Lin Qin. Synthesis and Structure-activity Relationships of Quaternary Coptisine Derivatives as Potential Anti-ulcerative Colitis Agents. Journal of Medicinal Chemistry. 2015, 58, 7557-7571.
The effect of the compounds of the invention on the disease activity index (DAI) and the inhibition rate of DAI in the C57b1/6j mice model of ulcerative colitis induced by DSS was investigated. […] In Table 5, **, P<0.01, compared with the normal control group; ^#, P<0.05 and ^##, P<0.01, compared with the model group.

[5] = tested on: acute ear swelling model of mice caused by croton oil; experiment: Acute ear swelling model of mice caused by croton oil; type: in vivo, Balb/c mice; conditions: 5 mg/kg by gavage
Method: (1) Animals: Balb/c mice, male (20-22 g); eight mice in each group.
(4) Experimental methods: the mice in the model group were administrated 0.9% normal saline (dosage volume: 10 ml/kg) by the intragastrical administration. In the positive drug group, the positive drug was prepared by 5 mg/kg of dosage using 0.9% normal saline as the solvent and was administrated by gavage (dosage volume: 10 ml/kg). In the compounds of the invention administration groups, the compounds were prepared by 100 mg/kg of dosage using 0.9% normal saline as the solvent and were administrated by gavage (dosage volume: 10 ml/kg). After the last administration, all mice were induced to inflammation by daubing 20 μl of croton oil acetone solution on both sides of the right ear, the left ear not daubed as normal control ear. After 4 hours of modeling, the mice were killed, the ears were cut off along the auricle baseline, and the ear pieces of each subject were taken off at the counterpart place of each ear with a perforator and weighed. The difference between the weight of the right ear piece and that of the left ear piece indicated the degree of inflammatory swelling. The inhibition rate of drugs on ear swelling (%) was calculated by comparing the ear swelling degree values of each administration group and positive drug group with the data of model group. Inhibition rate (%)=[(swelling degree of model group−swelling degree of administration group)/swelling degree of model group]×100 (%)
(5) Statistical analysis: The experimental results were expressed as ‘mean±sd’. The statistical differences between the two groups were calculated and analyzed by t-test method. ^#, indicates P<0.05 (compared with the model group); and ^##, P<0.01 (compared with the model group).

[6] = tested on: Escherichia coli; experiment: MIC by twofold microdilution broth method; type: cell-based; conditions: 24 h, read-out: MIC E. coli
Method: (§1) (1) Strains: Staphylococcus aureus, Escherichia colt, Candida albicans MCC (F) 98001.
(§2) (2) Experimental method: the anti-bacterial activity of the compounds of the invention was evaluated by determining the minimum inhibitory concentration (MIC) using the twofold microdilution broth method. The compounds of the invention and the reference substances (quaternary ammonium salt substrates of berberine-type alkaloids and levofloxacin) were prepared into a 20000 μg/ml stock solution with DMSO for use. S. aureus and E. coli were diluted using MHB (Mueller Hinton Broth) medium, and C. albicans using Sabouraud medium, all prepared into 10^6 CFU (colony forming unit) concentration as bacterial suspensions for use. The determination steps of MIC are as follows. First, 180 μl of MHB medium (for S. aureus and E. coli) or Sabouraud Medium (for C. albicans) was transferred to the first well in each row of the sterile 96 well plate, and 100 μl to the second to the 11th wells of each row, and 200 μl to the 12th well as negative blank control well. 20 μl sample stock solution was taken and added to the first well. After mixed up, 100 μl was taken from the first well and transferred to the second well. The same as mentioned above, the second well was mixed up, 100 μl of mixed content was taken from the second well and added to the third well, as described above. As such, the same operation was continued till the 10th well, and finally 100 μl of content was drawn from the 10th well and discarded. The bacterial suspension of 100 μl was added to each of the aforementioned from first to eleven wells and mixed up. Three parallel groups for each sample were set up. The 96 well plates were put into the incubator to culture for 24 h. […] The MIC values of each sample to be tested as well as those of the references were observed and recorded with the naked eyes.

[7] = tested on: Staphylococcus aureus; experiment: MIC by twofold microdilution broth method; type: cell-based; conditions: 24 h; for MIC: Staphylococcus aureus, read-out: MIC S. aureus
Method: as §1, §2

[8] = tested on: Candida albicans MCC (F) 98001; experiment: MIC by twofold microdilution broth method; type: cell-based; conditions: 24 h; for MIC: Candida albicans, read-out: MIC C. albicans
Method: as §1, §2

[9] = 100 mg/kg, listed as dihydrocoptisine
[10] = Sabouraud medium, 25° C., stock solution 20000 μg/ml

Q: With `CCCCCOC(=O)Nc1nc(=O)n([C@@H]2O[C@H](C)[C@@H](O)[C@H]2O)cc1F` [Capecitabine] as the compound, how does the Spleen weight [1] read?
A: 0.228 ± 0.029 g

Q: What about the “Tumor burden (relatively calculated value)” value [1] of the same compound?
A: 42.69 ± 10.26 piece

Q: What about the Spleen weight ([1]; listed as capecitabine) of the same compound?
A: 0.228 ± 0.029 g

Q: What about the “Tumor burden (relatively calculated value)” value ([1]; listed as capecitabine) of the same compound?
A: 42.69±10.26 piece

Q: Which “amount of 95% ethanol solvent required for dissolving each gram” value (from here on “amount of 95% ethanol solvent required”) [2] does the source give for `ClC(Cl)c1c2c3c(ccc2cc2[n+]1CCc1cc4c(cc1-2)OCO4)OCO3.O=C([O-])/C=C\C(=O)O` [Compound 25, 8-dichloromethyl coptisine hydrogen maleate] here?
A: 23 mL

Q: With `COc1ccc2cc3[n+](c(C(Cl)Cl)c2c1OC)CCc1cc2c(cc1-3)OCO2.O=C([O-])/C=C\C(=O)O` [Compound 27, 8-dichloromethyl berberine hydrogen maleate] as the compound, how does the “amount dissolved in each milliliter of water” value (“amount dissolved” for short) [3] read?
A: 3.83 mg

Q: What about the “amount of 95% ethanol solvent required” value [2] of the same compound?
A: 5.8 mL

Q: With `Cc1ccc(S(=O)(=O)[O-])cc1.ClC(Cl)c1c2c3c(ccc2cc2[n+]1CCc1cc4c(cc1-2)OCO4)OCO3` [Compound 29, 8-dichloromethyl coptisine tosylate] as the compound, how does the “amount of 95% ethanol solvent required” value [2] read?
A: 24 mL

Q: Which “amount dissolved” value [3] does the source give for `COc1ccc2cc3[n+](c(C(Cl)Cl)c2c1OC)CCc1cc2c(cc1-3)OCO2.Cc1ccc(S(=O)(=O)[O-])cc1` [Compound 31, 8-dichloromethyl berberine tosylate] here?
A: 5.0 mg

Q: And the “amount of 95% ethanol solvent required” value [2]?
A: 7 mL

Q: With `COc1ccc2cc3[n+](c(C(Cl)Cl)c2c1OC)CCc1cc2c(cc1-3)OCO2.O=S(=O)([O-])c1ccccc1` [Compound 47, 8-dichloromethyl berberine benzenesulfonate] as the compound, how does the “amount dissolved” value [3] read?
A: 6.45 mg

Q: What about the “amount of 95% ethanol solvent required” value [2] of the same compound?
A: 7 mL

Q: Which Colon length ([4]; 100 mg/kg) does the source give for `C1=C2c3cc4c(cc3CCN2Cc2c1ccc1c2OCO1)OCO4` [Dihydrocoptisine, dihydrocoptisine] here?
A: 6.23 ± 0.14^## cm

Q: What about the DAI ([4]; 100 mg/kg) of the same compound?
A: 2.24 ± 0.97^##

Q: What about the DAI inhibition rate ([4]; 100 mg/kg) of the same compound?
A: 44.03^## %

Q: And the “Body weight (g) X ± SD End” value ([4]; 100 mg/kg once a day for eight days)?
A: 18.43 ± 2.01 g

Q: And the “Percentage of colon contracture” value ([4]; 100 mg/kg)?
A: 23.93^## %

Q: And the “Percentage of colon contracture” value [4, 9]?
A: 23.93%

Q: And the “body weight loss percentage” value ([4]; 100 mg/kg)?
A: 18.77%

Q: What about the “Body weight change rate” value ([4]; 100 mg/kg) of the same compound?
A: −18.77^# %

Q: And the Colon length [4, 9]?
A: 6.23 cm

Q: And the DAI inhibition rate [4, 9]?
A: 44.03%

Q: Which “Inhibition rate (ear swelling)” value [5] does the source give for `COc1ccc2c(c1)c(CC(=O)O)c(C)n2C(=O)c1ccc(Cl)cc1` [Indomethacin] here?
A: 26.01^# %

Q: And the Degree of swelling ([5]; 4 hours after croton oil)?
A: 70.26 ± 20.97 mg

Q: What about the “Inhibition rate (ear swelling)” value ([5]; listed as indomethacin) of the same compound?
A: 26.01%

Q: Which MIC ([6]; MHB medium, 37° C.) does the source give for `C[C@H]1COc2c(N3CCN(C)CC3)c(F)cc3c(=O)c(C(=O)O)cn1c23` [Levofloxacin] here?
A: < 1.95 µg/mL

Q: What about the MIC ([7]; MHB medium, 37° C.) of the same compound?
A: < 1.95 µg/mL

Q: What about the MIC [8, 10] of the same compound?
A: > 250 µg/mL

Q: What about the “MIC C. albicans” value [8, 10] of the same compound?
A: more than 250 ug/mL

Q: With `O=C(O)c1cc(/N=N/c2ccc(S(=O)(=O)Nc3ccccn3)cc2)ccc1O` [SASP, salazosulfapyridine] as the compound, how does the Colon length ([4]; 500 mg/kg) read?
A: 5.90 cm and 5.90 ± 0.30^# cm

Q: And the DAI ([4]; 500 mg/kg)?
A: 3.07 ± 1.01^#

Q: What about the DAI inhibition rate ([4]; 500 mg/kg) of the same compound?
A: 23.33%

Q: What about the “Body weight (g) X ± SD End” value ([4]; 500 mg/kg once a day for eight days) of the same compound?
A: 15.86 ± 1.58 g

Q: What about the “Percentage of colon contracture” value ([4]; 500 mg/kg) of the same compound?
A: 28.43%

Q: What about the “body weight loss percentage” value ([4]; 500 mg/kg) of the same compound?
A: 27.70%

Q: And the “Body weight change rate” value ([4]; 500 mg/kg)?
A: −27.70%

Q: What does the source list for `COc1ccc2cc3[n+](cc2c1OC)CCc1cc2c(cc1-3)OCO2` [berberine hydrochloride]?
A: amount dissolved in each milliliter of water [3]: < 2 mg; MIC ([6]; MHB medium, 37° C.): 250 µg/mL; MIC S. aureus ([7]; MHB medium, 37° C.): 125 µg/mL; MIC ([7]; MHB medium, 37° C.): 125 µg/mL; MIC [8, 10]: 250 µg/mL; MIC C. albicans [8, 10]: 250 µg/mL

Q: For `c1c2c(cc3c1OCO3)-c1cc3ccc4c(c3c[n+]1CC2)OCO4` [coptisine hydrochloride], which “amount dissolved” value [3] is on record?
A: less than 1 mg

Q: And the MIC [6]?
A: > 250 µg/mL

Q: And the “MIC S. aureus” value ([7]; MHB medium, 37° C.)?
A: more than 250 ug/mL

Q: What about the MIC [7] of the same compound?
A: > 250 µg/mL

Q: What about the MIC [8] of the same compound?
A: 250 µg/mL

Q: And the “MIC C. albicans” value [8, 10]?
A: 250 µg/mL
